{
  "source": "patent US8404679B2",
  "about": "“Pyrrolidine derivatives as NK2 receptor antagonists” (Hoffmann-La Roche Inc., priority 2008, dated 2013)",
  "data": [
    {"biological_target": "T1, human NK2 receptor (Homo sapiens, UniProt P21452)", "T1 construct": "purchased Perkin Elmer biosignal Inc. 6110510", "T1 sequence (P21452 1-398)": "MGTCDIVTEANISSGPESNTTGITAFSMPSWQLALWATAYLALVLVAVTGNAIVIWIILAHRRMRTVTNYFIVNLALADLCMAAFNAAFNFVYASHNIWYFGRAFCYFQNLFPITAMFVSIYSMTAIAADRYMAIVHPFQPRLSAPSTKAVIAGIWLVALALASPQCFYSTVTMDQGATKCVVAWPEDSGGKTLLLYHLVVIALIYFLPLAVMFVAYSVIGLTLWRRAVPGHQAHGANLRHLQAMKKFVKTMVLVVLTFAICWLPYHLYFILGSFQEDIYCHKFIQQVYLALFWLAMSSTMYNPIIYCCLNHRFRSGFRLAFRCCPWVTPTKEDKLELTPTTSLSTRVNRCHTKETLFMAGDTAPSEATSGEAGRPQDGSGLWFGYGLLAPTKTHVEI", "experiment": "[3H]SR48968 competition binding assay", "conditions": "[3H]SR48968 displacement, membranes of CHO cells stably expressing recombinant human NK2 receptor; Ki from IC50 by Cheng-Prussoff", "in_short": "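Membranes from CHO cells stably expressing recombinant human NK2 were incubated 75 min at RT with [3H]SR48968 at its KD and 10 compound concentrations (0.0003–10 μM) in Tris-HCl pH 7.4, MnCl2, chymostatin, BSA. Filter-bound radioactivity was counted; Hill-fitted IC50 converted to Ki via Cheng-Prusoff.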", "units": {"Ki": "nM"}, "values": [
      {"smiles": "COc1ccc(C(=O)N(C)[C@H]2CN(C(=O)C3CCN(CCC(F)(F)F)CC3)C[C@@H]2c2ccc(Cl)c(Cl)c2)cc1C(F)(F)F", "note": "(racemic) [Example 139, N-{(3RS,4SR)-4-(3,4-Dichloro-phenyl)-1-[1-(3,3,3-trifluoro-propyl)-piperidine-4-carbonyl]-pyrrolidin-3-yl}-4-methoxy-N-methyl-3-trifluoromethyl-benzamide]", "Ki": 0.6},
      {"smiles": "CCS(=O)(=O)N1CCC(C(=O)N2C[C@H](c3ccc(Cl)c(Cl)c3)[C@@H](N(C)C(=O)c3ccc(OC)c(C(F)(F)F)c3)C2)CC1", "note": "(racemic) [Example 140, N-[(3RS,4SR)-4-(3,4-Dichloro-phenyl)-1-(1-ethanesulfonyl-piperidine-4-carbonyl)-pyrrolidin-3-yl]-4-methoxy-N-methyl-3-trifluoromethyl-benzamide]", "Ki": 0.7},
      {"smiles": "COc1ccc(C(=O)N(C)[C@H]2CN(C(=O)C3CCN(S(=O)(=O)C4CC4)CC3)C[C@@H]2c2ccc(Cl)c(Cl)c2)cc1C(F)(F)F", "note": "(racemic) [Example 141, N-[(3RS,4SR)-1-(1-Cyclopropanesulfonyl-piperidine-4-carbonyl)-4-(3,4-dichloro-phenyl)-pyrrolidin-3-yl]-4-methoxy-N-methyl-3-trifluoromethyl-benzamide]", "Ki": 0.7},
      {"smiles": "COc1ccc(C(=O)N(C)[C@H]2CN(C(=O)C3CCN(CCC#N)CC3)C[C@@H]2c2ccc(Cl)c(Cl)c2)cc1C(F)(F)F", "note": "(racemic) [Example 142, N-[(3RS,4SR)-1-[1-(2-Cyano-ethyl)-piperidine-4-carbonyl]-4-(3,4-dichloro-phenyl)-pyrrolidin-3-yl]-4-methoxy-N-methyl-3-trifluoromethyl-benzamide]", "Ki": 0.4},
      {"smiles": "CN(C(=O)Cc1ccc(F)cc1)C1CN(C(=O)C2CCN(CC3CC3)CC2)CC1c1ccc(Cl)c(Cl)c1", "note": "(racemic) [Example 143, N-[(3RS,4RS)-1-(1-Cyclopropylmethyl-piperidine-4-carbonyl)-4-(3,4-dichloro-phenyl)-pyrrolidin-3-yl]-2-(4-fluoro-phenyl)-N-methyl-acetamide]", "Ki": 26.9},
      {"smiles": "COCCN1CCC(C(=O)N2C[C@H](c3ccc(Cl)c(Cl)c3)[C@@H](N(C)C(=O)c3ccc(OC)c(C(F)(F)F)c3)C2)CC1", "note": "(racemic) [Example 144, N-{(3RS,4SR)-4-(3,4-Dichloro-phenyl)-1-[1-(2-methoxy-ethyl)-piperidine-4-carbonyl]-pyrrolidin-3-yl}-4-methoxy-N-methyl-3-trifluoromethyl-benzamide]", "Ki": 0.9},
      {"smiles": "CCOC(=O)N1CCC(C(=O)N2C[C@H](c3ccc(Cl)c(Cl)c3)[C@@H](N(C)C(=O)c3ccc(OC)c(C(F)(F)F)c3)C2)CC1", "note": "(racemic) [Example 145, 4-{(3SR,4RS)-3-(3,4-Dichloro-phenyl)-4-[(4-methoxy-3-trifluoromethyl-benzoyl)-methyl-amino]-pyrrolidine-1-carbonyl}-piperidine-1-carboxylic acid ethyl ester]", "Ki": 1.1},
      {"smiles": "COc1ccc(C(=O)N(C)[C@H]2CN(C(=O)c3ccc(-c4nc(C)no4)cc3)C[C@@H]2c2ccc(Cl)c(Cl)c2)cc1C(F)(F)F", "note": "(racemic) [Example 147, N-{(3RS,4SR)-4-(3,4-Dichloro-phenyl)-1-[4-(3-methyl-[1,2,4]oxadiazol-5-yl)-benzoyl]-pyrrolidin-3-yl}-4-methoxy-N-methyl-3-trifluoromethyl-benzamide]", "Ki": 1.4},
      {"smiles": "C=C(F)CN1CCC(C(=O)N2C[C@H](c3ccc(Cl)c(Cl)c3)[C@@H](N(C)C(=O)c3ccc(OC)c(C(F)(F)F)c3)C2)CC1", "note": "(racemic) [Example 148, N-{(3RS,4SR)-4-(3,4-Dichloro-phenyl)-1-[1-(2-fluoro-allyl)-piperidine-4-carbonyl]-pyrrolidin-3-yl}-4-methoxy-N-methyl-3-trifluoromethyl-benzamide]", "Ki": 0.5},
      {"smiles": "CN(C(=O)Cc1ccc(F)c(F)c1)[C@H]1CN(C(=O)C2CCN(CC3CC3)CC2)C[C@@H]1c1ccc(Cl)c(Cl)c1", "note": "(racemic) [Example 150, N-[(3RS,4SR)-1-(1-Cyclopropylmethyl-piperidine-4-carbonyl)-4-(3,4-dichloro-phenyl)-pyrrolidin-3-yl]-2-(3,4-difluoro-phenyl)-N-methyl-acetamide]", "Ki": 19.8},
      {"smiles": "CN(C(=O)CC1CCCC1)[C@H]1CN(C(=O)C2CCN(CC3CC3)CC2)C[C@@H]1c1ccc(Cl)c(Cl)c1", "note": "(racemic) [Example 151, 2-Cyclopentyl-N-[(3RS,4SR)-1-(1-cyclopropylmethyl-piperidine-4-carbonyl)-4-(3,4-dichloro-phenyl)-pyrrolidin-3-yl]-N-methyl-acetamide]", "Ki": 6.7},
      {"smiles": "CN(C(=O)Cc1cccc(F)c1F)[C@H]1CN(C(=O)C2CCN(CC3CC3)CC2)C[C@@H]1c1ccc(Cl)c(Cl)c1", "note": "(racemic) [Example 152, N-[(3RS,4SR)-1-(1-Cyclopropylmethyl-piperidine-4-carbonyl)-4-(3,4-dichloro-phenyl)-pyrrolidin-3-yl]-2-(2,3-difluoro-phenyl)-N-methyl-acetamide]", "Ki": 23},
      {"smiles": "CN(C(=O)Cc1ccc(Cl)cc1)[C@H]1CN(C(=O)C2CCN(CC3CC3)CC2)C[C@@H]1c1ccc(Cl)c(Cl)c1", "note": "(racemic) [Example 158, 2-(4-Chloro-phenyl)-N-[(3RS,4SR)-1-(1-cyclopropylmethyl-piperidine-4-carbonyl)-4-(3,4-dichloro-phenyl)-pyrrolidin-3-yl]-N-methyl-acetamide]", "Ki": 25.4},
      {"smiles": "CC(C(=O)N(C)[C@H]1CN(C(=O)C2CCN(CC3CC3)CC2)C[C@@H]1c1ccc(Cl)c(Cl)c1)c1ccc(F)cc1", "note": "(mixture of isomers) [Example 159, N-[(3RS,4SR)-1-(1-Cyclopropylmethyl-piperidine-4-carbonyl)-4-(3,4-dichloro-phenyl)-pyrrolidin-3-yl]-2-(4-fluoro-phenyl)-N-methyl-propionamide]", "Ki": 43.3},
      {"smiles": "CN(C(=O)c1ccc(Cl)c(C(F)(F)F)c1)[C@H]1CN(C(=O)C2CCNCC2)C[C@@H]1c1ccc(Cl)cc1", "note": "(racemic) [Example 160, 4-Chloro-N-[(3RS,4SR)-4-(4-chloro-phenyl)-1-(piperidine-4-carbonyl)-pyrrolidin-3-yl]-N-methyl-3-trifluoromethyl-benzamide]", "Ki": 5},
      {"smiles": "CN(C(=O)c1ccc(Cl)c(C(F)(F)F)c1)[C@H]1CN(C(=O)C2CCN(S(=O)(=O)C3CC3)CC2)C[C@@H]1c1ccc(Cl)cc1", "note": "(racemic) [Example 161, 4-Chloro-N-[(3RS,4SR)-4-(4-chloro-phenyl)-1-(1-cyclopropanesulfonyl-piperidine-4-carbonyl)-pyrrolidin-3-yl]-N-methyl-3-trifluoromethyl-benzamide]", "Ki": 1.7},
      {"smiles": "CN(C(=O)c1ccc(Cl)c(C(F)(F)F)c1)[C@H]1CN(C(=O)C2CCN(C3CCOCC3)CC2)C[C@@H]1c1ccc(Cl)cc1", "note": "(racemic) [Example 162, 4-Chloro-N-{(3RS,4SR)-4-(4-chloro-phenyl)-1-[1-(tetrahydro-pyran-4-yl)-piperidine-4-carbonyl]-pyrrolidin-3-yl}-N-methyl-3-trifluoromethyl-benzamide]", "Ki": 0.4},
      {"smiles": "CN(C(=O)c1ccc(Cl)c(C(F)(F)F)c1)[C@H]1CN(C(=O)C2CCN(CC#N)CC2)C[C@@H]1c1ccc(Cl)cc1", "note": "(racemic) [Example 163, 4-Chloro-N-[(3RS,4SR)-4-(4-chloro-phenyl)-1-(1-cyanomethyl-piperidine-4-carbonyl)-pyrrolidin-3-yl]-N-methyl-3-trifluoromethyl-benzamide]", "Ki": 3.7},
      {"smiles": "CN(C(=O)c1ccc(Cl)c(C(F)(F)F)c1)[C@H]1CN(C(=O)C2CCN(CC3CC3)CC2)C[C@@H]1c1ccc(Cl)c(Cl)c1", "note": "(racemic) [Example 164, 4-Chloro-N-[(3RS,4SR)-1-(1-cyclopropylmethyl-piperidine-4-carbonyl)-4-(3,4-dichloro-phenyl)-pyrrolidin-3-yl]-N-methyl-3-trifluoromethyl-benzamide]", "Ki": 0.5},
      {"smiles": "CN(C(=O)c1ccc(Cl)c(C(F)(F)F)c1)[C@H]1CN(C(=O)C2CCN(CCC#N)CC2)C[C@@H]1c1ccc(Cl)cc1", "note": "(racemic) [Example 165, 4-Chloro-N-{(3RS,4SR)-4-(4-chloro-phenyl)-1-[1-(2-cyano-ethyl)-piperidine-4-carbonyl]-pyrrolidin-3-yl}-N-methyl-3-trifluoromethyl-benzamide]", "Ki": 1.3},
      {"smiles": "CN(C(=O)c1cc(C(F)(F)F)ccn1)[C@H]1CN(C(=O)C2CCN(C(=O)C3(C)CC3)CC2)C[C@@H]1c1ccc(Cl)c(Cl)c1", "note": "(racemic) [Example 166, 4-Trifluoromethyl-pyridine-2-carboxylic acid {(3RS,4SR)-4-(3,4-dichloro-phenyl)-1-[1-(1-methyl-cyclopropanecarbonyl)-piperidine-4-carbonyl]-pyrrolidin-3-yl}-methyl-amide]", "Ki": 0.7},
      {"smiles": "CN(C(=O)c1ccc(Cl)c(Br)c1)[C@H]1CN(C(=O)C2CCN(C(=O)C3(C)CC3)CC2)C[C@@H]1c1ccc(Cl)c(Cl)c1", "note": "(racemic) [Example 171, 3-Bromo-4-chloro-N-{(3RS,4SR)-4-(3,4-dichloro-phenyl)-1-[1-(1-methyl-cyclopropanecarbonyl)-piperidine-4-carbonyl]-pyrrolidin-3-yl}-N-methyl-benzamide]", "Ki": 0.8},
      {"smiles": "CN(C(=O)c1ccc(Cl)c(C2CC2)c1)[C@H]1CN(C(=O)C2CCN(C(=O)C3(C)CC3)CC2)C[C@@H]1c1ccc(Cl)c(Cl)c1", "note": "(racemic) [Example 173, 4-Chloro-3-cyclopropyl-N-{(3RS,4SR)-4-(3,4-dichloro-phenyl)-1-[1-(1-methyl-cyclopropanecarbonyl)-piperidine-4-carbonyl]-pyrrolidin-3-yl}-N-methyl-benzamide]", "Ki": 1.7}
    ]}
  ]
}
